Data reported in patent US11464750B2, “Anticancer agent and use thereof” (priority 2017, dated 2022).
Entries after “also recorded” stand apart in the source; their conditions may differ.

Assays:
[1] = system: cyclin D1; test: Western blotting, cyclin D1, JeKo-1 cells; assay type: cell-based, human; details: 0.5 μM; for abundance of cyclin D1: cytoplasm fraction
Description: Specifically, first, JeKo-1 cells were cultured for 0 (control), 12, 24, and 48 hours in the presence of 0.5 μM of 3EZ,20Ac-ingenol. In addition, Panc-1 cells were cultured for 0 (control), 12, 24, and 48 hours in the presence of 3 μM of 3EZ,20Ac-ingenol.
Subsequently, abundances of cyclin D1 in entire cell fractions, nuclear fractions, and cytoplasm fractions of the respective cells were analyzed by Western blotting.

[2] = system: phosphorylated Akt (Ser^473); test: Western blotting, p-Akt (Ser473), BALL-1 cells; assay type: cell-based, human; details: 0.5 μM
Description: The effect of 3EZ,20Ac-ingenol treatment on a PI3K/Akt signaling pathway was examined. Specifically, BALL-1 cells, TKG0210 cells, and TKG0377 cells were cultured for 48 hours in the presence of 3EZ,20Ac-ingenol at a final concentration of 0.5 μM, and by Western blotting using an anti-p-Akt (Ser^473) antibody (Cell Signaling Technology), phosphorylation of the 473th serine residue of an Akt protein in respective fractions of the entire cell, a nucleus, and a cytoplasm was analyzed. In addition, cells cultured in the absence of 3EZ,20Ac-ingenol were used as controls.
The effect of 3EZ,20Ac-ingenol treatment on PTEN, p-PTEN, and p-Akt of BALL-1 cells was examined. First, BALL-1 cells were cultured for 3, 6, 12, 24, and 48 hours in the presence of 3EZ,20Ac-ingenol at a final concentration of 0.5 μM, and by Western blotting using an anti-PTEN antibody (Santa Cruz), an anti-p-PTEN (Ser^380/Thr^382/383) antibody (Santa Cruz), and an anti-p-Akt (Ser^473) antibody (Cell Signaling Technology), abundances of PTEN, p-PTEN, and p-Akt in the entire cell fraction were analyzed. In addition, cells cultured in the absence of 3EZ,20Ac-ingenol were used as controls.
BALL-1 cells, TKG0210 cells, and TKG0377 cells were cultured for 24 and 48 hours in the presence of 3EZ,20Ac-ingenol at a final concentration of 0.5 μM, and abundances of p-Akt in the nuclear fraction and the cytoplasm fraction were analyzed by Western blotting. In addition, respective cells cultured in the absence of 3FZ,20Ac-ingenol were used as controls.
The effect of 3EZ,20Ac-ingenol treatment on PTEN and p-Akt was examined using siRNA against PTEN. First, BALL-1 cells were cultured for 12, 24, and 48 hours in the presence of 3EZ,20Ac-ingenol at a final concentration of 0.5 μM, and an abundance of p-Akt was analyzed by Western blotting in the same manner as in Experimental Example 11. Cells cultured in the absence of 3EZ,20Ac-ingenol were used as controls.
Subsequently, siRNA against PTEN (“ON-TARGET Plus Human PTEN (5728) siRNA-SMARTpool,” GE Dharmacon) was introduced into BALL-1 cells at a final concentration of 50 nM and incubated for 48 hours. Subsequently, a cell medium was replaced with a new medium and cultured for 12, 24, and 48 hours in the presence or absence of 3EZ,20Ac-ingenol at a final concentration of 0.5 μM, and by Western blotting using an anti-PTEN antibody (Santa Cruz) and an anti-p-Akt (Ser^473) antibody (Cell Signaling Technology), abundances of PTEN protein and p-Akt were analyzed.

Compound: CCCCC/C=C\C=C\C(=O)O[C@H]1C(C)=C[C@]23C(=O)[C@@H](C=C(COC(C)=O)[C@@H](O)[C@]12O)[C@H]1[C@@H](C[C@H]3C)C1(C)C [3EZ,20Ac-ingenol, 3-O-(2′E,4′Z-decadienoyl)-20-O-acetylingenol]
- abundance of cyclin D1 ([1]; 12 to 48 hours): an increase in abundance of cyclin D1 was recognized
- abundance of cyclin D1 ([1]; thereafter): a decrease was recognized thereafter
- expression level of cyclin D1 ([1]; entire cell fraction, 12 to 48 hours): a decrease in expression level of cyclin D1 was observed
- expression level of cyclin D1 ([1]; nuclear fraction, 12 to 48 hours): a slight decrease in expression level of cyclin D1 was observed
- abundance of p-Akt ([2]; 3 to 48 hours, entire cell fraction): down-regulation of p-Akt abundance was observed
- abundance of p-Akt ([2]; 24 hours after the start of treatment (Experimental Example 16)): an abundance of p-Akt in the BALL-1 cells decreased
- abundance of p-Akt ([2]; 24 hours, nuclear fraction): a moderate decrease in abundance of p-Akt was observed
- abundance of p-Akt ([2]; 48 hours, cytoplasm fraction): slightly reduced; also recorded: a slight decrease in abundance of p-Akt was observed
- abundance of p-Akt ([2]; 48 hours, entire cell): a decrease in abundance of phosphorylated Akt
- abundance of p-Akt ([2]; 48 hours, nuclear fraction): significantly decreased; also recorded: a further decrease in abundance of p-Akt
- abundance of p-Akt ([2]; cells with siRNA against PTEN introduced, after 12 hours): an increase in abundance of p-Akt was observed
- abundance of p-Akt ([2]; cells with siRNA against PTEN introduced, after 24 hours and 48 hours): a decrease in abundance of p-Akt was observed
